Measured values published in ChEMBL document CHEMBL1201862, “PubChem BioAssay data set” (2004).
Active and inactive are the calls of the source.

How the values were obtained:
Caspase-3 = molecular target: T1, Caspase-3 (Homo sapiens, UniProt P42574); type: functional;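 also: Dose-response selectivity test against caspase-3 for candidate inhibitors of sentrin-specific proteases (SENPs)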
T1 sequence (P42574 whole entry): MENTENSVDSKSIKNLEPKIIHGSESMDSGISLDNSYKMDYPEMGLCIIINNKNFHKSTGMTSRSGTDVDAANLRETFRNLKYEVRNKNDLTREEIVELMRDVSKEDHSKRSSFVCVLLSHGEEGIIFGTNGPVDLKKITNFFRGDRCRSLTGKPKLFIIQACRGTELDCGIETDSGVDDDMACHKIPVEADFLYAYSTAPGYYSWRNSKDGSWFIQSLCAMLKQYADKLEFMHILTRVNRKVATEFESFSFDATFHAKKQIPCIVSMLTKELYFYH

[1] = Luminescence Cell-Based Dose Response HTS to Identify Activators of Luciferase Translation or Activity in H4 […] Cells. [Related pubchem assays: 1829 (Project Summary), 1814 (Primary HTS)]; type: functional
[2] = Luminescence Cell-Based Dose Confirmation HTS to Identify Activators of 5'UTR Stem-Loop Driven Alpha-Synuclein mRNA Translation in H4 Neuroglioblastoma Cells. [Related pubchem assays: 1829 (Project Summary), 1814 (Primary HTS)]; type: functional
H4 = assay: Luminescence Cell-Based Dose Response HTS to Identify Activators of 5'UTR Stem-Loop Driven Prion Protein mRNA Translation in H4 Neuroglioblastoma Cells. [Related pubchem assays: 1829 (Project Summary), 1814 (Primary HTS)]; type: functional; settings: Homo sapiens
[3] = molecular target: T2, Sentrin-specific protease 6 (Homo sapiens, UniProt Q9GZR1); type: functional;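 also: Luminescence-based dose-response confirmatory assay of SENP6 inhibition, following up an ultra-high-throughput screen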
T2 sequence (Q9GZR1 whole entry): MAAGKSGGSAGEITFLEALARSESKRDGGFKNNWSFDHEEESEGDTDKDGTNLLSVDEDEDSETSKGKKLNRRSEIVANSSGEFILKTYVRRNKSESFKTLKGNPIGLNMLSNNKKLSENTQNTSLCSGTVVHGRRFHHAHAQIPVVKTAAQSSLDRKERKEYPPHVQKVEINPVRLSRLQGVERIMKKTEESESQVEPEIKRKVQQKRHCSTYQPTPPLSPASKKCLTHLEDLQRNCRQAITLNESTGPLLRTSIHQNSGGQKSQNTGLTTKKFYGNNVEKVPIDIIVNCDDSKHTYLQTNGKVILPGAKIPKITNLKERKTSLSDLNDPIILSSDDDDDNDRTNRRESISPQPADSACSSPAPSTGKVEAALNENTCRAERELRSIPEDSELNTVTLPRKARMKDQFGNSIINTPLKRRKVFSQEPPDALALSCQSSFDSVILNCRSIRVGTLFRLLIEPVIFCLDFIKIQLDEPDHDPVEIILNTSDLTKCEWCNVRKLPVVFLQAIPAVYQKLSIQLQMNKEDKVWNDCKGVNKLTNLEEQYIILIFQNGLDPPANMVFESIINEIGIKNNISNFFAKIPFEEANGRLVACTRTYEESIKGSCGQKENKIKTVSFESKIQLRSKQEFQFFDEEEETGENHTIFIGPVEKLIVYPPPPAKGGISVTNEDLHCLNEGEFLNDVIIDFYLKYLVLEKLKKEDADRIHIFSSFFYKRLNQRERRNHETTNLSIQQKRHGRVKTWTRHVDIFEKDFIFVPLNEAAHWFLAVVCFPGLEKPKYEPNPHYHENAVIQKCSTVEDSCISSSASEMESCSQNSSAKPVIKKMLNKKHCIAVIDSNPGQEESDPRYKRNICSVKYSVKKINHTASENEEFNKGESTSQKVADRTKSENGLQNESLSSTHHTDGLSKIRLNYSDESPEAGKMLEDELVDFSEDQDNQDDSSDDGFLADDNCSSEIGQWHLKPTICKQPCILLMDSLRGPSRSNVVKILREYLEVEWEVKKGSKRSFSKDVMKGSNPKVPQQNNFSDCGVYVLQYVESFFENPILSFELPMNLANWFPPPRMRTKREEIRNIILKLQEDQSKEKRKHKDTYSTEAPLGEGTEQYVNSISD

[4] = molecular target: T3, Sentrin-specific protease 8 (Homo sapiens, UniProt Q96LD8); type: functional;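 also: luminescence read-out of SENP8 inhibition, dose-response confirmation following an ultra-high-throughput screen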
T3 sequence (Q96LD8 whole entry): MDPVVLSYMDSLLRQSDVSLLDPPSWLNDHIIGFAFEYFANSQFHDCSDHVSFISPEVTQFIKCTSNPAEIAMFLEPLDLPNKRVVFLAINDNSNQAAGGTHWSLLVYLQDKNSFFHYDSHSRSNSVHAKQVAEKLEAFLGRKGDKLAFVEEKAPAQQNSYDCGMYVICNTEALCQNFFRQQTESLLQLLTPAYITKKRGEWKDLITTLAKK

[5] = molecular target: T4, Sentrin-specific protease 7 (Homo sapiens, UniProt Q9BQF6); type: functional;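 also: Luminescence-based dose-response confirmation of ultra-high-throughput screening hits, measuring inhibition of SENP7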
T4 sequence (Q9BQF6 whole entry): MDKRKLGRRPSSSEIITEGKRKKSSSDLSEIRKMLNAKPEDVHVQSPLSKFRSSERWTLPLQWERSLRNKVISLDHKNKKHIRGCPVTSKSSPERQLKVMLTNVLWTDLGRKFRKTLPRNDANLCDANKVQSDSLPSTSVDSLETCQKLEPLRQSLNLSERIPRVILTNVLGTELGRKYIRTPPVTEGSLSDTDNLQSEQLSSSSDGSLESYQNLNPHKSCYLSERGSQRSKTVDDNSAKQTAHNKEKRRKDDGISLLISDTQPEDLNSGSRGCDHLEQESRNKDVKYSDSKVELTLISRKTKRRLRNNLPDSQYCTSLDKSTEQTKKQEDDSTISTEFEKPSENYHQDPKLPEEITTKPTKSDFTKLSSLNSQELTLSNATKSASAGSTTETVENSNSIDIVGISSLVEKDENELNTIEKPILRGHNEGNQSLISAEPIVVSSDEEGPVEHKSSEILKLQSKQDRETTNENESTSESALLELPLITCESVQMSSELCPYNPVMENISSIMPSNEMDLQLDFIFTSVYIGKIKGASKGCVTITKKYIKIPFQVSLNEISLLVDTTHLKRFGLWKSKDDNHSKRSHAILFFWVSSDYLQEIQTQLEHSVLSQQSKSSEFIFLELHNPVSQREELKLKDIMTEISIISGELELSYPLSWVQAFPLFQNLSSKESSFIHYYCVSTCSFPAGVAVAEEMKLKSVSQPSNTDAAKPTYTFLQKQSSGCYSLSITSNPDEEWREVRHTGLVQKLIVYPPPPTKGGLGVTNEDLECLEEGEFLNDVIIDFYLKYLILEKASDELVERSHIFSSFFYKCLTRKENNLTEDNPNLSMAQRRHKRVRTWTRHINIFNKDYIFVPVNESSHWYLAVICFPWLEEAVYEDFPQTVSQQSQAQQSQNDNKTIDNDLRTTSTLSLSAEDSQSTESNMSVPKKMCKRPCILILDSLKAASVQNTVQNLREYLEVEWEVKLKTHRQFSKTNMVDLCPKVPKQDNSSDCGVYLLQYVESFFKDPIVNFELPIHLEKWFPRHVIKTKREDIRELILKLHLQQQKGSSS

[6] = molecular target: T5, Oxysterols receptor LXR-beta (Homo sapiens, UniProt P55055); type: functional, cell-based;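 also: Cell-based luminescence dose-response assay of agonist activity at LXR, run as a confirmatory counterscreen to a daf-12 agonist screen; HEK293 cells with Gal4-LXR fusion and GAL4-driven luciferase reporter; agonist potency from rising luciferase signal of a Gal4-LXR reporter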
T5 sequence (P55055 whole entry): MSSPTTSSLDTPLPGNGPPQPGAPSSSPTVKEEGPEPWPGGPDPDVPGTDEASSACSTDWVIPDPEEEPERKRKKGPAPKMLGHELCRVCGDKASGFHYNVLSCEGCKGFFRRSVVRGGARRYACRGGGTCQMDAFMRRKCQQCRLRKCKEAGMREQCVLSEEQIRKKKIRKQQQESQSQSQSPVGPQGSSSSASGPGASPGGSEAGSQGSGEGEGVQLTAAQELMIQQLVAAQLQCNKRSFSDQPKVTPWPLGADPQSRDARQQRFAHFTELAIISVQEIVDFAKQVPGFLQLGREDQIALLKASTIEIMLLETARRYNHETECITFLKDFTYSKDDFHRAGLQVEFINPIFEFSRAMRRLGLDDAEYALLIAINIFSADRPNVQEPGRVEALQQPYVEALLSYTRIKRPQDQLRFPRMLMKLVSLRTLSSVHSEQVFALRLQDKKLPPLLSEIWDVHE

SMILES	IC50 (Caspase-3)	EC50 [1]	EC50 [2]	EC50 (H4)	IC50 [3]	IC50 [4]	IC50 [5]	EC50 (cells)	EC50 [6]
O=c1cc(-c2cccs2)oc2ccc(Cl)cc12	18 µM (active)	5.5 µM (active)	3.83 µM (active)	> 120 µM (not active)	> 100 µM (inactive)	> 100 µM (inactive)	7.72 µM (active)	–	–
C(=N\Nc1ccccc1)/c1nc2ccccc2s1	26 µM (active)	–	–	–	> 100 µM (inactive)	> 100 µM (inactive)	1.6 µM (active)	> 67.5 µM (inactive)	> 67.5 µM (inactive)
